Measured values taken from patent US6426369B1, “Oxethazaine as antimicrobial agent” (Eisai Co., Ltd., priority 1997, dated 2002).

Tested on: H. pylori
Test: Antimicrobial activity test 6: oxethazaine in combination with an antibiotic (AMPC, CAM, RXM), checker board method
Type: cell-based, Helicobacter pylori
Design: key to growth of H. pylori: “−” indicates the inhibited growth of H. pylori (presence of antimicrobial activity); “+” indicates the growth of H. pylori (absence of antimicrobial activity)
Details: for combined effect of oxethazaine and CAM / combined effect of oxethazaine and RXM: checker board; for effect of combined use: oxethazaine in combination with AMPC
Description: The effect of combined use with amoxicillin (AMPC), clarithromycin (CAM) or roxithromycin (RXM) was examined in the same manner as in antimicrobial activity test 1, using the checker board method.

In the case of `CN(C(=O)CN(CCO)CC(=O)N(C)C(C)(C)Cc1ccccc1)C(C)(C)Cc1ccccc1` [Oxethazaine, 2,2′-[(2-hydroxyethyl)amino]bis[N-(1,1-dimethyl-2-phenylethyl)-N-methylacetamide]], the “growth of H. pylori” value (strain 90-397, CAM 0.4 μg/ml, oxethazaine μg/ml: 100, 50, 25, 12.5, 6.25, 3.13, 0) is reported as “−”, the “growth of H. pylori” value (strain 90-397, CAM 0.8 μg/ml, oxethazaine μg/ml: 100, 50, 25, 12.5, 6.25, 3.13, 0) is reported as “−” and the “growth of H. pylori” value (strain 90-397, CAM 1.56 μg/ml, oxethazaine μg/ml: 100, 50, 25, 12.5, 6.25, 3.13, 0) is reported as “−”. For the same compound, the “growth of H. pylori” value (strain 90-397, CAM 3.13 μg/ml, oxethazaine μg/ml: 100, 50, 25, 12.5, 6.25, 3.13, 0) was “−”, the “growth of H. pylori” value (strain 90-397, CAM 6.25 μg/ml, oxethazaine μg/ml: 100, 50, 25, 12.5, 6.25, 3.13, 0) was “−” and the “growth of H. pylori” value (strain 90-397, CAM 12.5 μg/ml, oxethazaine μg/ml: 100, 50, 25, 12.5, 6.25, 3.13, 0) was “−”. For the same compound, the “growth of H. pylori” value (strain 90-397, CAM 25 μg/ml, oxethazaine μg/ml: 100, 50, 25, 12.5, 6.25, 3.13, 0) was “−”, the “growth of H. pylori” value (strain 90-397, CAM 50 μg/ml, oxethazaine μg/ml: 100, 50, 25, 12.5, 6.25, 3.13, 0) was “−” and the “growth of H. pylori” value (strain 90-397, CAM 100 μg/ml, oxethazaine μg/ml: 100, 50, 25, 12.5, 6.25, 3.13, 0) was “−”. The “combined effect of oxethazaine and CAM” value (strain 90-397) was 90-397 (synergism), the “growth of H. pylori” value (strain 90-407, CAM 0 μg/ml (oxethazaine alone), oxethazaine μg/ml by row r14-r19: 100, 50, 25, 12.5, 6.25, 3.13) was “−” and the “growth of H. pylori” value (strain 90-407, CAM 0.006 μg/ml, oxethazaine μg/ml: 100, 50, 25, 12.5, 6.25, 3.13, 0) was “−”. The “growth of H. pylori” value (strain 90-407, CAM 0.012 μg/ml, oxethazaine μg/ml: 100, 50, 25, 12.5, 6.25, 3.13, 0) was “−”, the “growth of H. pylori” value (strain 90-407, CAM 0.024 μg/ml, oxethazaine μg/ml: 100, 50, 25, 12.5, 6.25, 3.13, 0) was “−” and the “growth of H. pylori” value (strain 90-407, CAM 0.05 μg/ml, oxethazaine μg/ml: 100, 50, 25, 12.5, 6.25, 3.13, 0) was “−”. The “growth of H. pylori” value (strain 90-407, CAM 0.1 μg/ml, oxethazaine μg/ml: 100, 50, 25, 12.5, 6.25, 3.13, 0) was “−”, the “growth of H. pylori” value (strain 90-407, CAM 0.2 μg/ml, oxethazaine μg/ml: 100, 50, 25, 12.5, 6.25, 3.13, 0) was “−” and the “growth of H. pylori” value (strain 90-407, CAM 6.25 μg/ml, oxethazaine μg/ml: 100, 50, 25, 12.5, 6.25, 3.13, 0) was “−”. For the same compound, the “growth of H. pylori” value (strain 90-407, CAM 12.5 μg/ml, oxethazaine μg/ml: 100, 50, 25, 12.5, 6.25, 3.13, 0) was “−”, the “growth of H. pylori” value (strain 90-407, CAM 25 μg/ml, oxethazaine μg/ml: 100, 50, 25, 12.5, 6.25, 3.13, 0) was “−” and the “growth of H. pylori” value (strain 90-407, CAM 50 μg/ml, oxethazaine μg/ml: 100, 50, 25, 12.5, 6.25, 3.13, 0) was “−”. For the same compound, the “growth of H. pylori” value (strain 90-407, CAM 100 μg/ml, oxethazaine μg/ml: 100, 50, 25, 12.5, 6.25, 3.13, 0) was “−”, the “combined effect of oxethazaine and CAM” value (strain 90-407) was 90-407 (additive effect) and the “growth of H. pylori” value (strain 90-407, oxethazaine 3.13 μg/ml, AMPC 0) was “+”. The “growth of H. pylori” value (strain 90-407, oxethazaine 6.25 μg/ml, AMPC 0) was “+”, the “growth of H. pylori” value (strain 90-407, oxethazaine 12.5 μg/ml, AMPC 0) was “+” and the “growth of H. pylori” value (strain 90-407, oxethazaine 25 μg/ml, AMPC 0) was “−”. The “growth of H. pylori” value (strain 90-407, oxethazaine 50 μg/ml, AMPC 0) was “−”, the “growth of H. pylori” value (strain 90-407, oxethazaine 100 μg/ml, AMPC 0) was “−” and the “growth of H. pylori” value (strain 90-414, oxethazaine 3.13 μg/ml, AMPC 0) was “+”. For the same compound, the “growth of H. pylori” value (strain 90-414, oxethazaine 6.25 μg/ml, AMPC 0) was “+”, the “growth of H. pylori” value (strain 90-414, oxethazaine 12.5 μg/ml, AMPC 0) was “+” and the “growth of H. pylori” value (strain 90-414, oxethazaine 25 μg/ml, AMPC 0) was “−”. The “growth of H. pylori” value (strain 90-414, oxethazaine 50 μg/ml, AMPC 0) was “−”, the “growth of H. pylori” value (strain 90-414, oxethazaine 100 μg/ml, AMPC 0) was “−” and the “combined effect of oxethazaine and CAM” value (strain 90-428) was 90-428 (synergism). The “combined effect of oxethazaine and RXM” value (strain EH 12) was “EH 12 (additive effect)”, the “combined effect of oxethazaine and RXM” value (strain EH 13) was “EH 13 (additive effect)” and the “combined effect of oxethazaine and RXM” value (strain NCTC11637) was “NCTC11637 (additive effect)”. For the same compound, the “growth of H. pylori” value (strain NCTC11637, oxethazaine 3.13 μg/ml, CAM 0) was “+”, the “growth of H. pylori” value (strain NCTC11637, oxethazaine 6.25 μg/ml, CAM 0) was “+” and the “growth of H. pylori” value (strain NCTC11637, oxethazaine 12.5 μg/ml, CAM 0) was “−”. The “growth of H. pylori” value (strain NCTC11637, oxethazaine 25 μg/ml, CAM 0) was “−”, the “growth of H. pylori” value (strain NCTC11637, oxethazaine 50 μg/ml, CAM 0) was “−” and the “growth of H. pylori” value (strain NCTC11637, oxethazaine 100 μg/ml, CAM 0) was “−”. For the same compound, the “combined effect of oxethazaine and RXM” value (strain NCTC11639) was “NCTC11639 (additive effect)”, the “growth of H. pylori” value (strain NCTC11639, oxethazaine 3.13 μg/ml, CAM 0) was “+” and the “growth of H. pylori” value (strain NCTC11639, oxethazaine 6.25 μg/ml, CAM 0) was “+”. The “growth of H. pylori” value (strain NCTC11639, oxethazaine 12.5 μg/ml, CAM 0) was “+”, the “growth of H. pylori” value (strain NCTC11639, oxethazaine 25 μg/ml, CAM 0) was “−” and the “growth of H. pylori” value (strain NCTC11639, oxethazaine 50 μg/ml, CAM 0) was “−”. The “growth of H. pylori” value (strain NCTC11639, oxethazaine 100 μg/ml, CAM 0) was “−”, the “effect of combined use” value (the 34th table, strain NCTC11637) was “NCTC11637 (additive effect)” and the “effect of combined use” value (the 34th table, strain NCTC11639) was “NCTC11639 (additive effect)”. The “effect of combined use” value (the 35th table, strain NCTC11637) was “NCTC11637 (additive effect)”, the “effect of combined use” value (the 35th table, strain NCTC11639) was “NCTC11639 (additive effect)” and the “effect of combined use” value (the 36th table, strain EH 13) was “EH 13 (additive effect)”. For the same compound, the “effect of combined use” value (the 36th table, strain EH 16) was “EH 16 (additive effect)”, the “effect of combined use” value (the 37th table, strain EH 13) was “EH 13 (additive effect)” and the “effect of combined use” value (the 37th table, strain EH 16) was “EH 16 (additive effect)”.
